The values below come from US10442830B2, “Synthesis of monoethers of sugar comprising a long alkyl chain and uses thereof as a surfactant” (TEREOS STARCH & SWEETENERS BELGIUM, priority 2014, dated 2019).

This data set can be described thus: Surface tension of aqueous solutions (Du Noüy-Padday method, platinum rod probe). To be noted: for Minimum hydrotrope concentration (MHC) or critical micelle concentration (CMC) / surface tension of water (γsat): in water at 25° C.; for surface tension of water (γsat): saturation surface tension; for concentration necessary to lower the surface tension / surface tension reached at the stated concentration: water. The format is physicochemical. The protocol: The term “surfactant” or “surface-active agent” denotes a compound that reduces surface tension when it is dissolved in water or in an aqueous medium, or that reduces the interfacial tension between two liquids, between a liquid and a solid or between a liquid and a gas. As a general rule, the surface-active properties of a compound may be measured by the plate method using a platinum rod as probe (Du Nouy-Padday method, as described in J F Padday, A R Pitt, R M Pashley, J. Chem. Soc. Faraday. Trans 1, 1975, 71, 1919-1931). The Du Nouy-Padday method is used for measuring the equilibrium of surface tension or of dynamic surface tension at the air/liquid interface.
Surface tension was measured at (25.0±0.1)° C. with a Krüss K100MK2 tensiometer using a platinum rod as probe. A total of 1.0 ml of water was added to the measuring vessel. When the surface tension is stable (standard deviation of the last five measurements of 0.2 mN/m), manual dilution is carried out with a concentrated solution of surfactant to its limit of solubility while maintaining constant volume.
In the present study, the general characteristics of the surfactants were evaluated by measuring the reduction in saturated surface tension (γsat) and the critical micelle concentration (CMC) of the mixture (3+4) previously obtained in water at 25° C. The surface-active properties were compared against those of the pure compounds.
The surface tension of aqueous solutions containing increasing concentrations of each of the compounds was measured by the Du Noüy-Padday method using a platinum rod as probe (method described in J. F. Padday, A. R. Pitt, R. M. Pashley, J. Chem. Soc. Faraday. Trans 1, 1975, 71, 1919-1931). The data are presented graphically in FIG. 1, showing analysis of the surface tension as a function of the concentration of the sorbitan ether derivatives ([…] (black diamonds), C12EthSorb (black lozenges), C5/C12EthSorb (black triangles)). The value of the critical micelle concentration (CMC) is shown with a small arrow for C5EthSorb.
The general characteristics of the surfactants were evaluated as in example 4 by measuring the reduction in saturated surface tension (γsat) and the critical micelle concentration (CMC) of the mixture (C5/C12 MeGlu) obtained previously in water at 25° C. The surface-active properties were compared with pure compounds.
The surface tension of aqueous solutions containing increasing concentrations of each of the compounds was measured by the plate method using a platinum rod as probe (Du Nouy-Padday method as described in J F Padday, A R Pitt, R M Pashley, J. Chem. Soc. Faraday. Trans 1, 1975, 71, 1919-1931). The data are shown in FIG. 2, showing analysis of the surface tension from the concentration of the ether derivatives of methyl glucoside (C5EthMeGlu (black star), C12EthMeGlu (black diamond), C5/C12EthMeGlu (black cross)).

[1] abbreviates: ether derivatives of methyl glucoside.

Turning to “(6+4)-O-dodecyl-α-D-methyl glucopyranoside [Product C12EthMeGlu]”, under setting [1], the “Minimum hydrotrope concentration (MHC) or critical micelle concentration (CMC)” value (“Minimum hydrotrope concentration” below) turned out to be 4.5 mg/L and the “surface tension of water (γsat)” value was 28 mN/m.
Regarding “(6+5+3−)-dodecyl sorbitan [Product C12EthSorb]”, for the setting “sorbitan ether derivatives”, the “Minimum hydrotrope concentration” value worked out at 30.2 mg/L and the “surface tension of water (γsat)” value was determined as 31 mN/m.
Consider pentyl sorbitan [Product C5EthSorb], for which, where the note is “sorbitan ether derivatives”, the “Minimum hydrotrope concentration” value is reported as 1779 mg/L and the “surface tension of water (γsat)” value came to 32 mN/m. Where the note is “sorbitan ethers, to lower the surface tension by 31 mN/m”, the “concentration necessary to lower the surface tension” value turned out to be 1179 µg/mL. Moreover, the “surface tension reached at the stated concentration” value (sorbitan ethers) is 31 mN/m.
Turning to “pentyl α-D-methyl glucopyranoside [Product C5EthMeGlu]”, under setting [1], the “Minimum hydrotrope concentration” value was determined as 8199 mg/L and the “surface tension of water (γsat)” value is listed as 32 mN/m. For the same substance, where the note is “methyl glucoside ethers”, the “concentration necessary to lower the surface tension” value worked out at 8199 µg/mL and the “surface tension reached at the stated concentration” value is 32 mN/m.
